In patent US8952169B2 (Genentech, Inc., priority 2012, dated 2015):

Key:
hNav1.7 [1] = biological target: T1, hNav1.7 (Homo sapiens (Human), UniProt Q15858); assay: Tritiated aryl sulfonamide binding to membranes from cells expressing hNav1.7 and the β1 subunit (competitive binding); conditions: read-out: NaV1.7 395 Memb Binding (IC50)
Outline: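 Competitive displacement of 100 μM [3H]-labelled tritiated aryl sulfonamide from hNav1.7/β1 membranes, 18 h at room temperature in 100 mM NaCl, 20 mM Tris HCl pH 7.4. Non-specific binding defined with 1 μM unlabelled compound. Filter-bound radioactivity measured by liquid scintillation counting.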

hNav1.5 = hNav1.5 (Homo sapiens (Human), UniProt Q14524); assay: Patch voltage clamp electrophysiology (PatchXpress), HEK-293 cells, inactivated state block; conditions: read-out: EP_PX 293 hNav1.5 (IC50), β1 coexpressed, holding −60 mV;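 also: control was the sodium current recorded in 0.5% DMSO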
hNav1.7 [2] = biological target: T1, hNav1.7; assay: as above; format: cell-based; conditions: read-out: EP_PX 293 hNav1.7 (IC50)
[3] = membranes with hNav1.7 and β1 subunit, [3H]compound displacement, 18 h, room temperature
[4] = HEK-293 cells, β1 coexpressed, inactivated state, holding −60 mV

Chain of hNav1.5 (Q14524 whole entry): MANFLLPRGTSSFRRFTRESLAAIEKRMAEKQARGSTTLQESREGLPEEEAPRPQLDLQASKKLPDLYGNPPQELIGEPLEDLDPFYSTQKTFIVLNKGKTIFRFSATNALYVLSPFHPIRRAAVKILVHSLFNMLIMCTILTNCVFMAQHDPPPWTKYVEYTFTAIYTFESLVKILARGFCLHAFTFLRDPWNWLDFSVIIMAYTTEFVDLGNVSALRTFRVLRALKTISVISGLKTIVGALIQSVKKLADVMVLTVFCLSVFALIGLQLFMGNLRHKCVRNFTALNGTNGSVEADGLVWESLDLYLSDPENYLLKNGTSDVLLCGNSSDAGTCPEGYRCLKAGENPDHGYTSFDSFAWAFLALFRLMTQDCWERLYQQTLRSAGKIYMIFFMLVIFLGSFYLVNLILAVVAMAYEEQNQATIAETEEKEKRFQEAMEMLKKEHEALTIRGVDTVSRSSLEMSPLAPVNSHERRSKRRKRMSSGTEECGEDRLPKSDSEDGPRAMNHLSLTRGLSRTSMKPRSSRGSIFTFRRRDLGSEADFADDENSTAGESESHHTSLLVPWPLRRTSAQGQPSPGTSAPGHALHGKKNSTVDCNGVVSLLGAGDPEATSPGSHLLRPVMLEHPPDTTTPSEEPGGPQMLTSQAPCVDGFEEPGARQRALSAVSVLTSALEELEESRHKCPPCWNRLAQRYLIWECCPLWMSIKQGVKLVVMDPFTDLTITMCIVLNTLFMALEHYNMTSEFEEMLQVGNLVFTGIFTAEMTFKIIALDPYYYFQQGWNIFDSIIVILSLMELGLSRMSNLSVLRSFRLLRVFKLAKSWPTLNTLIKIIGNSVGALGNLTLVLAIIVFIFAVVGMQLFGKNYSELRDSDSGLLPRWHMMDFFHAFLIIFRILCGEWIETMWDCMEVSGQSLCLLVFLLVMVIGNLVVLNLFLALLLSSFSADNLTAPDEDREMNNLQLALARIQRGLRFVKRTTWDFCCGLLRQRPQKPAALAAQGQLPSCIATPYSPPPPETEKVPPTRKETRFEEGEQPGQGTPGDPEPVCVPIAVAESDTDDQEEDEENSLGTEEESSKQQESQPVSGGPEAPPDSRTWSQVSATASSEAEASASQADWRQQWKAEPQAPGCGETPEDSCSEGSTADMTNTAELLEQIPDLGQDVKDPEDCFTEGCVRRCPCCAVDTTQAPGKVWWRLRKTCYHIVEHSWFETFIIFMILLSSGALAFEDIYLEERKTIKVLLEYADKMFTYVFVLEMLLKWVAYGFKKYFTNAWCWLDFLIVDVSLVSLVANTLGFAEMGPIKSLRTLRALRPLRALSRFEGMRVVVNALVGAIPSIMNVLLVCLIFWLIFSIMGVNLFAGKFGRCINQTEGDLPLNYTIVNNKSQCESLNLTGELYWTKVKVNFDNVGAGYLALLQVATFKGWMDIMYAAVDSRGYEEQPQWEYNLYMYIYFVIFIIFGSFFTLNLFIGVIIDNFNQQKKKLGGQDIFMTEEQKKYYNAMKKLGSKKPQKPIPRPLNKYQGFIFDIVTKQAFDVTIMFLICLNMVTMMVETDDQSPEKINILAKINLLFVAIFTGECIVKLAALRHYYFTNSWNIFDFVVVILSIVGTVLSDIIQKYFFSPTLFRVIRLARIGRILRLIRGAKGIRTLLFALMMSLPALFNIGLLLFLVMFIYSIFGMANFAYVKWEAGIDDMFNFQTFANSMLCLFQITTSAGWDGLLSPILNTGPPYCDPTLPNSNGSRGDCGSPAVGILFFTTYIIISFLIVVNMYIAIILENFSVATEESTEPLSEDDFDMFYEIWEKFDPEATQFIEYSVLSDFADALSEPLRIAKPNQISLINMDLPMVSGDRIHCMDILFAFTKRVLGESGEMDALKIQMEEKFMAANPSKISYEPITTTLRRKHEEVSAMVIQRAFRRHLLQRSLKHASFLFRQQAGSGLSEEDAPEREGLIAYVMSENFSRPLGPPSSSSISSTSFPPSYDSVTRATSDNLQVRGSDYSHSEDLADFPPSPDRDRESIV
T1 sequence (Q15858 whole entry, looked up): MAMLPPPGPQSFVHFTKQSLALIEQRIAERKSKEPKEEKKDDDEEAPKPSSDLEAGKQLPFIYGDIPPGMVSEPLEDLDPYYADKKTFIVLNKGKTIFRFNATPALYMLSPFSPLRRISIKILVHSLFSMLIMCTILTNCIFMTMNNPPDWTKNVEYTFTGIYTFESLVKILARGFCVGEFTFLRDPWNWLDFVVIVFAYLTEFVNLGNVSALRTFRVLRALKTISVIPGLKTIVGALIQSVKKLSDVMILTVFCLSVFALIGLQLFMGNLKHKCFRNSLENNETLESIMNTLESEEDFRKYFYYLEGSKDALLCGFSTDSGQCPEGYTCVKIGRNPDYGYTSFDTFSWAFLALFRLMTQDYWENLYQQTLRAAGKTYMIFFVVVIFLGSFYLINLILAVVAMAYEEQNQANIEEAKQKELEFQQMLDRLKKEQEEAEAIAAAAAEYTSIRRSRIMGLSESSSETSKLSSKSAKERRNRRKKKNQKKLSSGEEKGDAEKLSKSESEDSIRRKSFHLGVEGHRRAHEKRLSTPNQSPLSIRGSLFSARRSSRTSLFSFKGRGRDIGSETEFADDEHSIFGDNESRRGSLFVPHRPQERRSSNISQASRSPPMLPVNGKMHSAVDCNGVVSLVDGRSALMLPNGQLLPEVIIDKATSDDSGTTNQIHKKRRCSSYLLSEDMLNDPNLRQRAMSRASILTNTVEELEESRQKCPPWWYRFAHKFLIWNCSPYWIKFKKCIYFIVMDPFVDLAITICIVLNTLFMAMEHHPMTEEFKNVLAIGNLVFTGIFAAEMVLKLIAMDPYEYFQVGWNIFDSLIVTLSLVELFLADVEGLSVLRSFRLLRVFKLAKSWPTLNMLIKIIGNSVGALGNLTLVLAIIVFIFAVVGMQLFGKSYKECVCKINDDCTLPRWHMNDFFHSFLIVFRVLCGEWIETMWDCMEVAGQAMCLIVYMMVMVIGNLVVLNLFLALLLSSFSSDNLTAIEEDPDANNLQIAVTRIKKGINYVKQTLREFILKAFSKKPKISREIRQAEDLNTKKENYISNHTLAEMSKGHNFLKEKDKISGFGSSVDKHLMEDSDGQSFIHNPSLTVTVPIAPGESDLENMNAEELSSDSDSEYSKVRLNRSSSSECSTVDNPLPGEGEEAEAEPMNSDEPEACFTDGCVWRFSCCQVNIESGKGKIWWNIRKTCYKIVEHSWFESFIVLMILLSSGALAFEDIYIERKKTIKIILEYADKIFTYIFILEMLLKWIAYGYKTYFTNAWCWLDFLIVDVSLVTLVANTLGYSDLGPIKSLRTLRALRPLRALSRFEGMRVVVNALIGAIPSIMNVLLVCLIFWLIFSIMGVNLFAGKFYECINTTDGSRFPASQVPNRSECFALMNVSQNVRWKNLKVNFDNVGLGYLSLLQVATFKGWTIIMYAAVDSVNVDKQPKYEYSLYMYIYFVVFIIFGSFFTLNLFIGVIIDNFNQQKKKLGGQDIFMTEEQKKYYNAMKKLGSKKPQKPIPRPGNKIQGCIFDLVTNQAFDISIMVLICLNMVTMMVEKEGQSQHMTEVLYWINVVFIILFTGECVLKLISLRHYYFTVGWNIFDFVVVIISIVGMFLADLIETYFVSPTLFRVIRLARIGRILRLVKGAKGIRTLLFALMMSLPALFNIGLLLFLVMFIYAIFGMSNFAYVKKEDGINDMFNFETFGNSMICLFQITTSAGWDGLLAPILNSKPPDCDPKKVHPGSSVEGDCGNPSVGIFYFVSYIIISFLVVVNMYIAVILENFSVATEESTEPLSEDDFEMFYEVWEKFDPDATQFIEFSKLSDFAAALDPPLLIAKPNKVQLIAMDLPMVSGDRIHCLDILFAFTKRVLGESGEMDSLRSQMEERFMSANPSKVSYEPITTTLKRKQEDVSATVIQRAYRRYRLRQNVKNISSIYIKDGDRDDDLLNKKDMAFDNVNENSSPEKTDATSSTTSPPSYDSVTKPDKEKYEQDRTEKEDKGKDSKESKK
T1 sequence (Q07699 whole entry partner, looked up): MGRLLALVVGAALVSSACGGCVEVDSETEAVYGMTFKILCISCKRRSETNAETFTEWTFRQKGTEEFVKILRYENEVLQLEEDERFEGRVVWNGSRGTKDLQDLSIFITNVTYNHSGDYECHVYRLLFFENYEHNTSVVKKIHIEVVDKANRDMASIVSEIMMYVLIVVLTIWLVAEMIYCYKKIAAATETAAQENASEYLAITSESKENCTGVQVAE

Compound	IC50 (hNav1.7 [1]; [3]) [nM]	IC50 (hNav1.5) [nM]	IC50 (hNav1.7 [2]; [4]) [nM]	IC50 (hNav1.7 [1]) [nM]	IC50 (hNav1.7 [2]) [nM]
CN(C)S(=O)(=O)NC(=O)c1cc(Cl)c(OC2CC3CC2C2CCCC32)cc1F (stereo not drawn)	535	7820			
O=C(NS(=O)(=O)C1CC1)c1cc(Cl)c(OCC23CC4CC(CC(C4)C2)C3)cc1F		427			
CS(=O)(=O)NC(=O)c1cc(C2CC2)c(OCC2CCC(F)(F)CC2)cc1F		5230			
COCCS(=O)(=O)NC(=O)c1cc(C2CC2)c(OCC2CCCCC2)cc1F		140			
CC1(COc2cc(F)c(C(=O)NS(=O)(=O)N3CCC3)cc2C2CC2)CCC2(CC1)CC2(F)F (stereo not drawn)	11		47		
CC1(COc2cc(F)c(C(=O)NS(C)(=O)=O)cc2C2CC2)CCC(C(F)(F)F)CC1 (stereo not drawn)	4		59		
CCc1cc(C(=O)NS(=O)(=O)N2CCC2)c(F)cc1OCC12CC3CC(CC(C3)C1)C2	5		3.3		
O=C(NS(=O)(=O)CCO)c1cc(C2CC2)c(OCC23CC4CC(CC(C4)C2)C3)cc1F	7		4.6		
CN(C)S(=O)(=O)NC(=O)c1cc(Cl)c(OCC23CC4CC(CC(Cl)(C4)C2)C3)cc1F	160		85.4		
CN(C)S(=O)(=O)NC(=O)c1cc(Cl)c(OCC2(C(F)(F)F)CCC2)cc1F	294		41.6		
4-(adamantan-1-ylmethoxy)-N-(azetidin-1-ylsulfonyl)-3-chloro-5-fluorobenzamide [Example 416]	5		9		
5-chloro-4-(cyclohexylmethoxy)-2-fluoro-N-(methylsulfonyl)benzamide [Example 21]	1060		107		
O=C(NS(=O)(=O)N1CCC1)c1cc(C2CC2)c(OCC2CN(C(c3ccccc3)c3ccccc3)C2)cc1F (racemic)	12		350		
O=C(NS(=O)(=O)C1CC1)c1cc(C2CC2)c(OCC2CN(C(c3ccccc3)c3ccccc3)C2)cc1F (single isomer, unassigned)	5		82		
CC12CC3CC(C)(C1)CC(COc1cc(F)c(C(=O)NS(C)(=O)=O)cc1Cl)(C3)C2 [Example 23]	13		22.9		
CC1(C)[C@@H]2CC[C@@]1(C)[C@@H](Oc1cc(F)c(C(=O)NS(C)(=O)=O)cc1Cl)C2 [Example 25]	220		27		
CC(Oc1cc(F)c(C(=O)NS(C)(=O)=O)cc1Cl)C12CC3CC(CC(C3)C1)C2 (stereo not drawn) [Example 31]	1400		146		
O=C(NS(=O)(=O)C1CC1)c1cc(Cl)c(OC2CCC(Cl)(Cl)CC2)cc1F [Example 293]	180		140		
CO[C@@H]1CCN(S(=O)(=O)NC(=O)c2cc(C3CC3)c(OCC34CC5CC(CC(C5)C3)C4)cc2F)C1 [Example 301]	14		360		
CC1(OCc2cc(F)c(C(=O)NS(C)(=O)=O)cc2Cl)CCC(F)(F)CC1 [Example 305]	310		1400		
CS(=O)(=O)NC(=O)c1cc(C2CC2)c(O[C@H]2C3CC4CC2C[C@](F)(C4)C3)cc1F [Example 308]	20		180		
CC1(C)CCC(COc2cc(F)c(C(=O)NS(=O)(=O)N3CCC3)cc2C2CC2)CC1 [Example 309]				6	79
CS(=O)(=O)NC(=O)c1cc(C2CC2)c(OCC23CCCCC2C3(F)F)cc1F (stereo not drawn) [Example 310]	84		10		
COCCS(=O)(=O)NC(=O)c1cc(C2CC2)c(OCC23CCCCC2C3(F)F)cc1F (stereo not drawn) [Example 311]	30		53		
O=C(NS(=O)(=O)N1CCC1)c1cc(C2CC2)c(COC23CC4CC(CC(C4)C2)C3)cc1F [Example 320]	17		140		
CS(=O)(=O)NC(=O)c1cc(F)c(OCC23CC4CC(CC(C4)C2)C3)c(Cl)c1 [Example 325]	270		2500		
O=C(NS(=O)(=O)C1CC1)c1cc(C2CC2)c(OCC2(C(F)(F)F)CCC2)cc1F [Example 327]	3		12		

Compound	IC50 (hNav1.7 [1]; [3]) [nM]	IC50 (hNav1.5) [nM]	IC50 (hNav1.7 [2]; [4]) [nM]	IC50 (hNav1.7 [1]) [nM]	IC50 (hNav1.7 [2]) [nM]
O=C(NS(=O)(=O)C1CC1)c1cc(Cl)c(OCC2(C(F)(F)F)CCC2)cc1F [Example 328]	24		70		
O=C(NS(=O)(=O)N1CCC1)c1cc(C2CC2)c(OCC2(C(F)(F)F)CCC2)cc1F [Example 329]	4		20		
O=C(NS(=O)(=O)N1CCC1)c1cc(Cl)c(OCC2(C(F)(F)F)CCC2)cc1F [Example 330]	25		91		
CC1(F)CCC(COc2cc(F)c(C(=O)NS(=O)(=O)N3CCC3)cc2Cl)CC1 (stereo not drawn) [Example 331]	450		710		
O=C(NS(=O)(=O)C1CC1)c1cc(C2CC2)c(OC2C3CC4CC(C3)CC2C4)cc1F (stereo not drawn) [Example 332]	4		27		
O=C(NS(=O)(=O)C1CC1)c1cc(Cl)c(OC2CCC(F)(F)CC2)cc1F [Example 339]	310		3300		
O=C(NS(=O)(=O)N1CCC1)c1cc(C2CC2)c(OCC2CC23CCCCC3)cc1F (stereo not drawn) [Example 347]	14		67		
COC(=O)C12CC3C[C@H](C1)C(Oc1cc(F)c(C(=O)NS(C)(=O)=O)cc1Cl)[C@@H](C3)C2 (stereo partly drawn) [Example 353, (1s,3R,4r,5S,7s)-methyl 4-(2-chloro-5-fluoro-4-((methyl-sulfonyl)carbamoyl)-phenoxy)adamantane-1-carboxylate]	130		240		
CC1(C)CCCC(Oc2cc(F)c(C(=O)NS(=O)(=O)N3CCC3)cc2C2CC2)C1 (stereo not drawn) [Example 357]	16		120		
CC1(C)CCCC(Oc2cc(F)c(C(=O)NS(C)(=O)=O)cc2C2CC2)C1 (stereo not drawn) [Example 358, 5-cyclopropyl-4-((3,3-dimethylcyclohexyl)oxy)-2-fluoro-N-(methylsulfonyl)benzamide]	12		62		
CC1CCCCC1COc1cc(F)c(C(=O)NS(=O)(=O)N2CCC2)cc1C1CC1 (stereo not drawn) [Example 372]	7		11		
O=C(NS(=O)(=O)N1CCC1)c1cc(C2CC2)c(OCC2CC=C(Cl)CC2)cc1F (stereo not drawn) [Example 376]	20		30		
O=C(NS(=O)(=O)N1CCC1)c1cc(C2CC2)c(OCC2CCC(Cl)(Cl)CC2)cc1F [Example 377]	8		84		
CS(=O)(=O)NC(=O)c1cc(C2CC2(F)F)c(OCC23CC4CC(CC(C4)C2)C3)cc1F (stereo not drawn) [Example 380]	4		80		
O=C(NS(=O)(=O)C1CC1)c1cc(C2CC2)c(OCC2CCC3CC3C2)cc1F (stereo not drawn) [Example 392]	5		3		
CC1CCCC(C)C1COc1cc(F)c(C(=O)NS(=O)(=O)C2CC2)cc1Cl (stereo not drawn) [Example 397]	32		200		
CCS(=O)(=O)NC(=O)c1cc(Cl)c(OCC2CCC3(CC2)CC3)cc1F [Example 400]	20		97		
CS(=O)(=O)NC(=O)c1cc(C2CC2)c(OCC2CCCC(F)(F)C2)cc1F (stereo not drawn) [Example 402]	22		300		
CNS(=O)(=O)NC(=O)c1cc(C2CC2)c(OCC2CCCC(F)(F)C2)cc1F (stereo not drawn) [Example 403]	90		910		
O=C(NS(=O)(=O)N1CCC1)c1cc(C2CC2)c(OCC2CCCC(F)(F)C2)cc1F (stereo not drawn) [Example 404]	23		57		
CC1(COc2cc(F)c(C(=O)NS(=O)(=O)C3CC3)cc2C2CC2)CCC(C(F)(F)F)CC1 (stereo not drawn) [Example 426, 5-cyclopropyl-N-cyclopropylsulfonyl-2-fluoro-4-[[1-methyl-4-(trifluoromethyl)cyclohexyl]methoxy]benzamide]	2		51		
CC1(COc2cc(F)c(C(=O)NS(=O)(=O)N3CCC3)cc2C2CC2)CCC(C(F)(F)F)CC1 (stereo not drawn) [Example 427, N-(azetidin-1-ylsulfonyl)-5-cyclopropyl-2-fluoro-4-[[1-methyl-4-(trifluoromethyl)cyclohexyl]methoxy]benzamide]	3		130		
O=C(NS(=O)(=O)C1CC1)c1cc(C2CC2)c(OCC2CCC(C(F)(F)F)CC2)cc1F (stereo not drawn) [Example 428, 5-cyclopropyl-N-cyclopropylsulfonyl-2-fluoro-4-[[4-(trifluoromethyl)cyclohexyl]methoxy]benzamide]	4		12		
O=C(NS(=O)(=O)N1CCC1)c1cc(C2CC2)c(OCC2CCC(C(F)(F)F)CC2)cc1F (stereo not drawn) [Example 429, N-(azetidin-1-ylsulfonyl)-5-cyclopropyl-2-fluoro-4-[[4-(trifluoromethyl)cyclohexyl]methoxy]benzamide]	8		100		
O=C(NS(=O)(=O)C1CC1)c1cc(C2CC2)c(OCC23CCCCC2C3(F)F)cc1F (stereo not drawn) [Example 430, 5-cyclopropyl-N-cyclopropylsulfonyl-4-[(7,7-difluoronorcaran-1-yl)methoxy]-2-fluoro-benzamide]	3		10		
O=C(NS(=O)(=O)N1CCC1)c1cc(C2CC2)c(OCC23CCCCC2C3(F)F)cc1F (stereo not drawn) [Example 431, N-(azetidin-1-ylsulfonyl)-5-cyclopropyl-4-[(7,7-difluoronorcaran-1-yl)methoxy]-2-fluoro-benzamide]	13		10		
O=C(NS(=O)(=O)N1CCC1)c1cc(C2CC2)c(OCC2CCC3CC3C2)cc1F (stereo not drawn) [Example 432, N-(azetidin-1-ylsulfonyl)-5-cyclopropyl-2-fluoro-4-(norcaran-3-ylmethoxy)benzamide]	22		32		
